Measurements reported in US7893067B2, “Cysteine protease inhibitors” (Medivir AB, priority 2007, dated 2011).
Where two headings read alike, the source gives them in different places.

Key:
[1] = molecular target: T1, human recombinant cathepsin K (Homo sapiens, UniProt P43235); experiment: Determination of cathepsin K proteolytic catalytic activity (Ki); format: biochemical
T1 construct: made in house; host or cells: not fixed: E coli, Pichia or Baculovirus systems named as options
T1 sequence (P43235 115-329): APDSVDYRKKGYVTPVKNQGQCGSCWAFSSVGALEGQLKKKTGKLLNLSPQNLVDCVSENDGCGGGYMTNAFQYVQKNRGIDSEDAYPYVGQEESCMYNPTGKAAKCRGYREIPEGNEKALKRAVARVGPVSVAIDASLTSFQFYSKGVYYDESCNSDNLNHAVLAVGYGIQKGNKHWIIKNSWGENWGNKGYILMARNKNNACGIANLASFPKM
Method: Convenient assays for cathepsin K are carried out using human recombinant enzyme, such as that described in PDB.
The recombinant cathepsin K can be expressed in a variety of commercially available expression systems including E coli, Pichia and Baculovirus systems. The purified enzyme is activated by removal of the prosequence by conventional methods.
Standard assay conditions for the determination of kinetic constants used a fluorogenic peptide substrate, typically H-D-Ala-Leu-Lys-AMC, and were determined in either 100 mM Mes/Tris, pH 7.0 containing 1 mM EDTA and 10 mM 2-mercaptoethanol or 100 mM Na phosphate, imM EDTA, 0.1% PEG4000 pH 6.5 or 100 mM Na acetate, pH 5.5 containing 5 mM EDTA and 20 mM cysteine, in each case optionally with […] as stabiliser. The enzyme concentration used was 5 nM. The stock substrate solution was prepared at 10 mM in DMSO. Screens were carried out at a fixed substrate concentration of 60 μM and detailed kinetic studies with doubling dilutions of substrate from 250 μM. The total DMSO concentration in the assay was kept below 3%. All assays were conducted at ambient temperature. Product fluorescence (excitation at 390 nm, emission at 460 nm) was monitored with a Labsystems Fluoroskan Ascent fluorescent plate reader. Product progress curves were generated over 15 minutes following generation of AMC product.
(§1) Potential inhibitors are screened using the above assay with variable concentrations of test compound. Reactions were initiated by addition of enzyme to buffered solutions of substrate and inhibitor. Ki values were calculated according to equation 1
(§2) [formula] where v0 is the velocity of the reaction, V is the maximal velocity, S is the concentration of substrate with Michaelis constant of KM, and/is the concentration of inhibitor.

human cathepsin L = human cathepsin L (Homo sapiens, UniProt P07711); experiment: Cathepsin L Ki; format: biochemical
Chain of human cathepsin L (P07711 114-333): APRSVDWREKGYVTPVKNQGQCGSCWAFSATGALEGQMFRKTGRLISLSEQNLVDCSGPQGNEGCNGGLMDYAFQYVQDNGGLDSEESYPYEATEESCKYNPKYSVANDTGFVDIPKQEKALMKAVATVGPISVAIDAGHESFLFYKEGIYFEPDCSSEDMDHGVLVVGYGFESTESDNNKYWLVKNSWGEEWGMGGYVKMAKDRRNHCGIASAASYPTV
Method: The procedure above with the following amendments is used for the determination of Ki for cathepsin L.
The enzyme is commercially available human cathepsin L (for example Calbiochem). The substrate is H-D-Val-Leu-Lys-AMC available from Bahcem. The assay buffer is 100 mM sodium acetate 1 mM EDTA, pH5.5) The DMSO stock (10 mM in 100% DMSO) is diluted to 10% in assay buffer. Enzyme is prepared at 5 nM concentration in assay buffer plus 1 mM dithiothreitol just before use. 2 ul of 10 mM inhibitor made up in 100% DMSO is dispensed into row A. 10 ul of 50 uM substrate (=1/200 dilution of 10 mM stock in DMSO, diluted in assay buffer)
as §1, §2

[2] = molecular target: T2, baculovirus-expressed human cathepsin S (Homo sapiens, UniProt P25774); experiment: Cathepsin S Ki determination; format: biochemical
T2 construct: made in house
T2 sequence (P25774 115-331): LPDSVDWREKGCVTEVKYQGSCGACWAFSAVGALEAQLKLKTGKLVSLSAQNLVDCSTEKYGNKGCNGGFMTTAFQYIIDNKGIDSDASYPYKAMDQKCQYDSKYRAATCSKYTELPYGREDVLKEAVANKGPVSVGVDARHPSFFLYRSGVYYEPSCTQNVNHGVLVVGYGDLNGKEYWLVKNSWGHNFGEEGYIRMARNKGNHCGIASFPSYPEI
Method: 280 μl/well of 12.5% DMSO are added to rows B-H of two columns of a 96 deep well polypropylene plate. 70 μl/well of substrate is added to row A. 2×250 μl/well of assay buffer (100 mM Na phosphate, 100 mM NaCl, pH 6.5) is added to row A, mixed, and double diluted down the plate to row H. 100 μl/well of assay buffer is added to columns 2-5 and 7-12 of 4 rows of a 96 well V bottom polypropylene plate. 200 μl/well of assay buffer is added to columns 1 and 6. […] Add 90 μl assay buffer containing 1 mM DTT and 2 nM cathepsin S to each well of rows B-H and 180 μl to row A. Mix row A using a multichannel pipette and double dilute to row G. Mix row H and read in the fluorescent spectrophotometer. […] The second test compound is added to column 6 of the top row, the third to column 1 of the second row etc. Add 1 μl of comparator to column 6 of the bottom row. Mix column 1 and double dilute to column 5. Mix column 6 and double dilute to column 10. Using an 8-channel multistepping pipette set to 5×10 μl, distribute 10 μl/well of substrate to the 384 well assay plate. Distribute the first column of the substrate dilution plate to all columns of the assay plate starting at row A. The tip spacing of the multichannel pipette will correctly skip alternate rows. Distribute the second column to all columns starting at row B. Using a 12-channel multistepping pipette set to 4×10 μl, distribute 10 μl/well of inhibitor to the 384 well assay plate. Distribute the first row of the inhibitor dilution plate to alternate rows of the assay plate starting at A1. The tip spacing of the multichannel pipette will correctly skip alternate columns. Similarly, distribute the second, third and fourth rows to alternate rows and columns starting at A2, B1 and B2 respectively. Mix 20 ml assay buffer and 20 μl 1M DTT. Add sufficient cathepsin S to give 2 nM final concentration. Using the a distributor such as a Multidrop 384, add 30 μl/well to all wells of the assay plate and read in fluorescent spectrophotomoter such as an Ascent. Fluorescent readings, (excitation and emission wavelengths 390 nm and 460 nm respectively, set using bandpass filters) reflecting the extent of enzyme cleavage of the fluorescent substrate, notwithstanding the inhibitor, are linear rate fitted for each well. Fitted rates for all wells for each inhibitor are fitted to the competitive inhibition equation using SigmaPlot 2000 to determine V, Km and Ki values. Potential inhibitors are screened using the above assay with variable concentrations of test compound. Reactions were initiated by addition of enzyme to buffered solutions of substrate and inhibitor. Ki values were calculated according to equation 1 [formula] where v0 is the velocity of the reaction, V is the maximal velocity, S is the concentration of substrate with Michaelis constant of KM, and/is the concentration of inhibitor.

[3] = Metabolic stability in human hepatic cytosol assay; format: in vitro ADME
Method: Compounds of the invention and the indicated comparative examples were tested for metabolic stability in a cytosol assay in which the compounds were incubated with commercially available human hepatic cytosol fractions and the disappearance of the compound monitored by HPLC or LC/MS. Pooled human liver cytosol fractions are less likely to represent outlier individuals than blood from a single individual and can be stored frozen, unlike whole blood. The cytosol assay thus provides a consistent assay testbed as a guide to the stability of a compound in the in vivo environment, such as when exposed to whole blood.
In short, test compounds (2 μM) are incubated in pooled human liver cytosol (Xenotech LLC Lenexa US, 1 mg/mL protein in 0.1M phosphate buffer, pH 7.4) at 37° centigrade over a one hour period. The incubations are initiated by the addition of 1 mM NADPH co-factor. Timed sub-samples were taken at 0, 20, 40 and 60 minutes and “crash precipitated” by the addition of 3 volumes of ice-cold acetonitrile. The samples were centrifuged at reduced temperature and the supernatants were separated and analyzed by LC-MS-MS.

[4] = Caco-2 permeability (Papp); format: in vitro ADME; conditions: human; Caco-2 assay, standard concentration 10 μM
Method: The transport plate comprises 3 rows of 4 wells.
Determination of the cumulative fraction absorbed, FAcum, versus time. FAcum is calculated from: […]
A linear relationship should be obtained.

[5] = typical reference compounds (markers) for the Caco-2 assay; cited from earlier work
[6] = 2 μM in pooled human liver cytosol, 1 mg/mL protein, pH 7.4, 37°, 1 mM NADPH
[7] = representative values from specific batches of compound/enzyme/assay occasion

SMILES	Ki ([1]; Table 1, class symbols) [nM]	Ki (human cathepsin L; Table 1, class symbols) [nM]	Ki ([2]; Table 1, class symbols) [nM]	half-life at 2 μM [3, 6] [h]	Ki [1, 7] [nM]	Ki (human cathepsin L; [7]) [nM]	Ki [2, 7] [nM]	further results
CC(C)C[C@H](NC(c1ccc(-c2ccc(S(C)(=O)=O)cc2)cc1)C(F)(F)F)C(=O)N1C[C@@H](Cl)[C@H]2OCC(=O)[C@H]21 (stereo in doubt) [Example 13, 6-Chloro-4-{4-methyl-2-[2,2,2-trifluoro-1-(4′-methanesulfonyl-biphenyl-4-yl)-ethylamino]-pentanoyl}-tetrahydro-furo[3,2-b]pyrrol-3-one]	< 50	1000 to 5000	> 10000					
CC(C)C[C@H](NC(=O)c1ccc(-c2csc(N3CCN(C)CC3)n2)cc1)C(=O)N1C[C@H](Cl)[C@H]2OCC(=O)[C@H]21 [Comparative Example 1, reference compound]				0.4				
Cc1sc(N2CCN(C)CC2)nc1-c1ccc(C(=O)N[C@@H](CC(C)C)C(=O)N2CC[C@H]3OCC(=O)[C@H]32)cc1 [Comparative Example 2, reference compound]				1.2				cytosol half life ([3]; human liver cytosol): a little over an hour
Cc1sc(N2CCN(C)CC2)nc1-c1ccc(C(=O)N[C@@H](CC(C)C)C(=O)N2C[C@H](F)[C@H]3OCC(=O)[C@H]32)cc1 [Comparative Example 3, reference compound]				1.67 to 2.5				
Cc1sc(N2CCN(C)CC2)nc1-c1ccc(C(=O)N[C@@H](CC(C)C)C(=O)N2C[C@@H](Cl)[C@H]3OCC(=O)[C@H]32)cc1 [Example 5, N-[1-(6-chloro-3-oxo-hexahydro-furo[3,2-b]pyrrol-4-carbonyl)-3-methyl-butyl]-4-[5-methyl-2-(4-methyl-piperazin-1-yl)-thiazol-4-yl]-benzamide]	< 50	501 to 1000	5000 to 10000	3.3	1.6	880	7500	
CC(C)C[C@H](NC(=O)c1ccc(-c2csc(N3CCN(C)CC3)n2)cc1)C(=O)N1C[C@@H](Cl)[C@H]2OCC(=O)[C@H]21 [Example 6, N—[(S)-1-((3aS,6R,6aS)-6-chloro-3-oxo-hexahydro-furo[3,2-b]pyrrole-4-carbonyl)-3-methyl-butyl]-4-[2-(4-methyl-piperazin-1-yl)-thiazol-4-yl]benzamide]	< 50	501 to 1000	1000 to 5000		1.5	890	4000	t1/2 minutes [3, 6]: >5 h; half-life at 2 μM ([3]; pooled human liver cytosol, pH 7.4, human liver cytosol, read-out: cytosol half life): > 5 h
CN1CCN(c2nc(-c3ccc(C(=O)N[C@H](C(=O)N4C[C@@H](Cl)[C@H]5OCC(=O)[C@H]54)C4CCCCC4)cc3)cs2)CC1 [Example 7, N-[2-((3aS,6R,6aS)-6-Chloro-3-oxo-hexahydro-furo[3,2-b]pyrrole-4-yl)-1-S-cyclohexyl-2-oxo-ethyl]-4-[2-(4-methyl-piperazin-1-yl)-thiazol-4-yl]-benzamide]	< 50	1000 to 5000	1000 to 5000		4.2	1200	1700	
CN1CCN(c2nc(-c3ccc(C(=O)N[C@@H](CC(C)(C)F)C(=O)N4C[C@@H](Cl)[C@H]5OCC(=O)[C@H]54)cc3)cs2)CC1 [Example 8, N—[(S)-1-((3aS,6R,6aS)-6-chloro-3-oxo-hexahydro-furo[3,2-b]pyrrole-4-carbonyl)-3-fluoro-3-methyl-butyl]-4-[2-(4-methyl-piperazin-1-yl)-thiazol-4-yl]benzamide]	< 50	1000 to 5000	> 10000		3.3	2900	13000	
CC(C)C[C@H](NC(=O)c1ccc(-c2csc(N3CCN(C)CC3)n2)c(F)c1)C(=O)N1C[C@@H](Cl)[C@H]2OCC(=O)[C@H]21 [Example 10, N—[(S)-1-((3aS,6R,6aS)-6-Chloro-3-oxo-hexahydro-furo[3,2-b]pyrrole-4-carbonyl)-3-methyl-butyl]-3-fluoro-4-[2-(4-methyl-piperazin-1-yl)-thiazol-4-yl]-benzamide]	< 50	50 to 500	1000 to 5000		3.4	490	4700	Papp at 120 min, 10 μM [4]: 5.2 ×10⁻⁶ cm/s
CC(C)C[C@H](NC(=O)c1ccc(-c2csc(N3CCN(C)CC3)n2)c(F)c1)C(=O)N1C[C@@H](Cl)[C@H]2OCC(=O)[C@H]21 [Example 11]				3				
N[C@@H](Cc1ccccc1)C(=O)O [L-Phenylalanine]								% absorption in man [5]: 100%
OC[C@@H](O)[C@@H](O)[C@H](O)[C@H](O)CO [Mannitol]								% absorption in man [5]: 16%
CN(Cc1cnc2nc(N)nc(N)c2n1)c1ccc(C(=O)N[C@@H](CCC(=O)O)C(=O)O)cc1 [Methotrexate]								% absorption in man [5]: 20%
